Data reported in patent US11998513B2, “Two-part nitric oxide generating topical compositions” (THE REGENTS OF THE UNIVERSITY OF MICHIGAN, priority 2018, dated 2024).
Values belong to the compound of their own block, whether it stands above or below them.

Assays:
Assay type in all cases: physicochemical
[1] = Storage stability of SNAP in VASELINE® (UV-Vis % Recovery); conditions: room temperature
Experimental: The stability of 5 wt % and 10 wt % SNAP in petroleum jelly was tested. The petroleum jelly used was VASELINE®.
Mixtures of 5 wt % SNAP powder or 10 wt % SNAP powder in VASELINE® were mixed until homogeneity was achieved. Each homogeneous mixture was spread out on a weigh boat and dried under vacuum and desiccant for 24 hours. Afterwards, individual samples were weighed out into individual amber glass vials. Each sample's mass was recorded to obtain the theoretical amount of SNAP in each sample. Septum caps were used to allow purging of each sample with nitrogen gas for storage. All caps were then wrapped in parafilm, and then each vial was wrapped in aluminum foil to ensure that the samples are not exposed to light. All samples were stored in the dark at room temperature (˜25° C. in this example).
To quantify the amount of SNAP in each VASELINE® sample, UV-Vis was used. After recording the absorption of a sample, Beer's law (A=εbc, where A=absorption, ε=922 M^−1 cm^−1, b=1 cm, and c=concentration) was used to calculate the concentration of SNAP. These measurements were made at different times over several months.
When a stored SNAP/VASELINE® sample was going to be analyzed, it was opened and 40 mg of the sample was retrieved. […] The SNAP solution was diluted 1:10 twice, and used to obtain UV-Vis absorbance values between 0.2 and 2 AU (absorbance units) at […]. […]

[2] = NO release from 1 mM GSNO bulk solution after addition of metal ions (chemiluminescence analyzer); conditions: 100 μL of 1 mM salt into 2 mL of 1 mM GSNO, 10 mM Tris-HCl pH 7.4, dark, 24° C.
Experimental: Another experiment was performed to determine whether zinc ions can increase NO proliferation from GSNO in the dark at 24° C. NO release was measured using a nitric oxide (chemiluminescence) analyzer. Throughout the analysis, each solution was bubbled with N2 gas at a rate of 50 mL/min. Any generated NO was carried into the analyzer by a N2 sweep gas. All of the solutions were made with 10 mM Tris-HCl buffer (pH 7.4). A bulk solution was prepared including 1 mM GSNO in the buffer. 2 mL of this bulk solution were added to a sample cell and the analyzer was allowed to equilibrate for 1 minute. At t=1 minute, 100 μL of 1 mM zinc chloride (ZnCl2) was added to the bulk solution. […] For the control, 100 μL of the buffer (10 mM Tris-HCl, pH 7.4) was added into the bulk solution at t=1 minute. The same insignificant burst was observed. For each scenario, at t=10.5 minutes, 100 μL of 1 mM CuCl2 was added to the bulk as a positive control.

[3] = Storage stability of GSNO in VASELINE® (UV-Vis % Recovery); conditions: room temperature (18° C. to about 25° C.)
Experimental: The stability of 10 wt % GSNO in petroleum jelly was tested. The petroleum jelly used was VASELINE®.
A mixture 10 wt % GSNO in VASELINE® was mixed until homogeneity was achieved. The homogeneous mixture was spread out on a weigh boat and dried under vacuum and desiccant for 24 hours. Afterwards, individual samples were weighed out into individual amber glass vials. Each sample's mass, ranging from 15-40 mg per sample, was recorded to obtain the theoretical amount of GSNO in each sample. Septum caps were used to allow purging of each sample with nitrogen gas for storage. Each sample was purged under nitrogen gas for 5 hours. […]
To quantify the amount of GSNO in each VASELINE® sample, ultraviolet-visible spectroscopy (UV-Vis) was used. […]
When a stored GSNO/VASELINE® sample was going to be analyzed, it was opened, subjected to 5 mL of xylene, vortexed for 30 seconds, and stirred for 10 minutes. […] An aliquot of the aqueous layer was taken and the absorbance spectrum was captured from 200-600 nm using UV-Vis to quantitate the level of GSNO present in the GSNO/VASELINE® sample. […]
UV-Vis spectroscopy was used to determine the stability of GSNO in VASELINE®. […] After sample prep, the aliquot of the aqueous layer was taken in an appropriate volume so that the absorbance measured would be <1 at 334 nm. The sample was further diluted if necessary to achieve an absorbance of <1. […]

period for which petroleum jelly is a stable carrier ([1]; higher amounts of SNAP (10 wt % SNAP)): at least 2 months | period for which petroleum jelly is a stable carrier ([1]; lower amounts of SNAP (5 wt % SNAP)): at least 6 months
Structure (SMILES): CC(=O)N[C@@H](C(=O)O)C(C)(C)SN=O (racemic) [SNAP, S-nitroso-n-acetylpenicillamine]

NO release on addition to GSNO bulk solution (in words) [2]: large burst in NO release
Structure (SMILES): [Cl][Cu][Cl] [CuCl2]

period for which petroleum jelly is a stable carrier [3]: at least 300 days
Structure (SMILES): N[C@@H](CCC(=O)N[C@@H](CSN=O)C(=O)NCC(=O)O)C(=O)O [GSNO, S-nitrosoglutathione]

Structure (SMILES): [Cl-].[Cl-].[Zn+2] [ZnCl2, zinc chloride]
NO release on addition to GSNO bulk solution (in words) [2]: small, insignificant burst of NO
